In US20250296953A1, “3,4-THIAZOLO-STEROIDS AND METHODS OF MAKING AND USING THE SAME” (Arkansas State University - Jonesboro, priority 2018, published 2025):
Read-outs that look alike come from different tables or passages of the source.

Columns and labels:
[1] = test system: 60 different human tumor cell lines; experiment: NCI Development Therapeutics Program 60 cell line screen, one dose; assay type: cell-based
[2] = test system: NCI-H522 (NSCLC); experiment: NCI 60 one dose screen; assay type: cell-based, human; settings: Non-small Cell Lung Cancer
[3] = test system: HCT-15 (Colon Cancer); experiment: NCI 60 one dose screen; assay type: cell-based, human
[4] = test system: SF-295; experiment: NCI 60 one dose screen; assay type: cell-based, human; settings: one dose; CNS Cancer; SF-295
[5] = test system: SF-539; experiment: NCI 60 one dose screen; assay type: cell-based, human; settings: one dose; CNS Cancer; SF-539
[6] = test system: 60 different human tumor cell lines; experiment: cells
[7] = test system: gliosarcoma (SF-539); experiment: NCI 60 five dose screen
[8] = test system: RPMI-8226; experiment: NCI 60 five dose screen
[9] = test system: SR; experiment: NCI 60 five dose screen

C[C@]12CC[C@H]3[C@@H](CC=C4c5sc(-c6ccc(O)cc6)nc5CC[C@@]43C)[C@@H]1CC[C@@H]2O [III.5, (1S,2R,13R,14S,17S,18S)-7-(4-hydroxyphenyl)-2,18-dimethyl-8-thia-6-azapentacyclo[11.7.0.02,10.05,9.014,18]icosa-5(9),6,10-trien-17-ol]
Growth Percent ([1]; Breast Cancer, BT-549): 59.26%
Growth Percent ([1]; Breast Cancer, HS 578T): 4.16%
Growth Percent ([1]; Breast Cancer, MCF7): 42.59%
Growth Percent ([1]; Breast Cancer, MDA-MB-231/ATCC): 56.24%
Growth Percent ([1]; Breast Cancer, MDA-MB-468): 81.03%
Growth Percent ([1]; Breast Cancer, T-47D): 67.74%
Growth Percent ([1]; CNS Cancer, SF-268): 48.55%
Growth Percent ([1]; CNS Cancer, SNB-19): 71.05%
Growth Percent ([1]; CNS Cancer, SNB-75): 26.42%
Growth Percent ([1]; CNS Cancer, U251): 20.08%
Growth Percent ([1]; Colon Cancer, COLO 205): 77.66%
Growth Percent ([1]; Colon Cancer, HCC-2998): 95.33%
Growth Percent ([1]; Colon Cancer, HCT-116): 43.80%
Growth Percent ([1]; Colon Cancer, HT29): 19.90%
Growth Percent ([1]; Colon Cancer, KM12): 60.79%
Growth Percent ([1]; Colon Cancer, SW-620): 71.71%
Growth Percent ([1]; Leukemia, CCRF-CEM): 13.10%
Growth Percent ([1]; Leukemia, HL-60(TB)): 22.65%
Growth Percent ([1]; Leukemia, K-562): 13.87%
Growth Percent ([1]; Leukemia, MOLT-4): −23.23%
Growth Percent ([1]; Leukemia, RPMI-8226): −36.92%
Growth Percent ([1]; Leukemia, SR): 5.95%
Growth Percent ([1]; Melanoma, LOX IMVI): 25.37%
Growth Percent ([1]; Melanoma, M14): 60.54%
Growth Percent ([1]; Melanoma, MALME-3M): 72.42%
Growth Percent ([1]; Melanoma, MDA-MB-435): 91.96%
Growth Percent ([1]; Melanoma, SK-MEL-2): 44.94%
Growth Percent ([1]; Melanoma, SK-MEL-5): 71.98%
Growth Percent ([1]; Melanoma, SK-MEL-28): 53.31%
Growth Percent ([1]; Melanoma, UACC-62): 28.69%
Growth Percent ([1]; Melanoma, UACC-257): 66.19%
Growth Percent ([1]; Non-small Cell Lung Cancer, A549/ATCC): 52.15%
Growth Percent ([1]; Non-small Cell Lung Cancer, EKVX): 63.56%
Growth Percent ([1]; Non-small Cell Lung Cancer, HOP-62): 46.75%
Growth Percent ([1]; Non-small Cell Lung Cancer, NCI-H23): 74.72%
Growth Percent ([1]; Non-small Cell Lung Cancer, NCI-H226): 109.87%
Growth Percent ([1]; Non-small Cell Lung Cancer, NCI-H322M): 92.82%
Growth Percent ([1]; Non-small Cell Lung Cancer, NCI-H460): 41.91%
Growth Percent ([1]; Ovarian Cancer, IGROV1): 80.66%
Growth Percent ([1]; Ovarian Cancer, NCI/ADR-RES): 76.79%
Growth Percent ([1]; Ovarian Cancer, OVCAR-3): 38.63%
Growth Percent ([1]; Ovarian Cancer, OVCAR-4): 81.75%
Growth Percent ([1]; Ovarian Cancer, OVCAR-5): 106.38%
Growth Percent ([1]; Ovarian Cancer, OVCAR-8): 74.18%
Growth Percent ([1]; Ovarian Cancer, SK-OV-3): 38.63%
Growth Percent ([1]; Prostate Cancer, DU-145): 63.77%
Growth Percent ([1]; Prostate Cancer, PC-3): 49.49%
Growth Percent ([1]; Renal Cancer, 786-0): 8.35%
Growth Percent ([1]; Renal Cancer, A498): 49.45%
Growth Percent ([1]; Renal Cancer, ACHN): 46.04%
Growth Percent ([1]; Renal Cancer, CAKI-1): 61.32%
Growth Percent ([1]; Renal Cancer, RXF 393): −46.32%
Growth Percent ([1]; Renal Cancer, SN12C): 96.68%
Growth Percent ([1]; Renal Cancer, TK-10): 89.27%
Growth Percent ([1]; Renal Cancer, UO-31): 9.33%
Growth Percent [2]: 41.21%
Growth Percent [3]: 29.48%
Growth Percent [4]: −36.24%
Growth Percent [5]: 8.02%
GI50 ([6]; 786-0): 0.423 µM
CC50 ([6]; 786-0, read-out: LC50): 21.2 µM
GI50 ([6]; A498): 3.51 µM
CC50 ([6]; A498, read-out: LC50): > 100 µM
GI50 ([6]; A549): 5.95 µM
CC50 ([6]; A549, read-out: LC50): > 100 µM
GI50 ([6]; ACHN): 7.55 µM
CC50 ([6]; ACHN, read-out: LC50): > 100 µM
GI50 ([6]; BT-549): 1.14 µM
CC50 ([6]; BT-549, read-out: LC50): > 100 µM
GI50 ([6]; CAKI-1): 4.12 µM
CC50 ([6]; CAKI-1, read-out: LC50): > 100 µM
GI50 ([6]; CCRF-CEM): 2.05 µM
CC50 ([6]; CCRF-CEM, read-out: LC50): > 100 µM
GI50 ([6]; COLO 205): 9.14 µM
CC50 ([6]; COLO 205, read-out: LC50): > 100 µM
GI50 ([6]; DU-145): 9.54 µM
CC50 ([6]; DU-145, read-out: LC50): > 100 µM
GI50 ([6]; EKVX): 7.29 µM
CC50 ([6]; EKVX, read-out: LC50): > 100 µM
GI50 ([6]; HCC 2998): 31.9 µM
CC50 ([6]; HCC 2998, read-out: LC50): > 100 µM
GI50 ([6]; HCT-15): 2.43 µM
CC50 ([6]; HCT-15, read-out: LC50): > 100 µM
GI50 ([6]; HCT-116): 2.37 µM
CC50 ([6]; HCT-116, read-out: LC50): > 100 µM
GI50 ([6]; HL-60): 4.08 µM
CC50 ([6]; HL-60, read-out: LC50): > 100 µM
GI50 ([6]; HOP-62): 5.25 µM
CC50 ([6]; HOP-62, read-out: LC50): > 100 µM
GI50 ([6]; HT-29): 3.13 µM
CC50 ([6]; HT-29, read-out: LC50): > 100 µM
GI50 ([6]; Hs-578T): 1.59 µM
CC50 ([6]; Hs-578T, read-out: LC50): > 100 µM
GI50 ([6]; IGROV-1): 11.1 µM
CC50 ([6]; IGROV-1, read-out: LC50): > 100 µM
GI50 ([6]; K562): 3.48 µM
CC50 ([6]; K562, read-out: LC50): > 100 µM
GI50 ([6]; KM12): 7.24 µM
CC50 ([6]; KM12, read-out: LC50): > 100 µM
GI50 ([6]; LOX IMVI): 2.67 µM
CC50 ([6]; LOX IMVI, read-out: LC50): > 100 µM
GI50 ([6]; M14): 2.86 µM
CC50 ([6]; M14, read-out: LC50): > 100 µM
GI50 ([6]; MCF7): 3.34 µM
CC50 ([6]; MCF7, read-out: LC50): > 100 µM
GI50 ([6]; MDA-MB-231): 6.98 µM
CC50 ([6]; MDA-MB-231, read-out: LC50): > 100 µM
GI50 ([6]; MDA-MB-435): 16.4 µM
CC50 ([6]; MDA-MB-435, read-out: LC50): > 100 µM
GI50 ([6]; MDA-MB-468): 5.13 µM
CC50 ([6]; MDA-MB-468, read-out: LC50): > 100 µM
GI50 ([6]; MOLT-4): 1.93 µM
CC50 ([6]; MOLT-4, read-out: LC50): > 100 µM
GI50 ([6]; Malme-3M): 3.76 µM
CC50 ([6]; Malme-3M, read-out: LC50): > 100 µM
GI50 ([6]; NCI-H23): 14 µM
CC50 ([6]; NCI-H23, read-out: LC50): > 100 µM
GI50 ([6]; NCI-H226): 27.4 µM
CC50 ([6]; NCI-H226, read-out: LC50): > 100 µM
GI50 ([6]; NCI-H322M): 31.1 µM
CC50 ([6]; NCI-H322M, read-out: LC50): > 100 µM
GI50 ([6]; NCI-H460): 4.94 µM
CC50 ([6]; NCI-H460, read-out: LC50): > 100 µM
GI50 ([6]; NCI-H522): 22.6 µM
CC50 ([6]; NCI-H522, read-out: LC50): > 100 µM
GI50 ([6]; NCI/ADR-RES): 6.77 µM
CC50 ([6]; NCI/ADR-RES, read-out: LC50): > 100 µM
GI50 ([6]; OVCAR-3): 8.67 µM
CC50 ([6]; OVCAR-3, read-out: LC50): > 100 µM
GI50 ([6]; OVCAR-4): 7.24 µM
CC50 ([6]; OVCAR-4, read-out: LC50): > 100 µM
GI50 ([6]; OVCAR-5): 13.3 µM
CC50 ([6]; OVCAR-5, read-out: LC50): > 100 µM
GI50 ([6]; OVCAR-8): 40.9 µM
CC50 ([6]; OVCAR-8, read-out: LC50): > 100 µM
GI50 ([6]; RXF 393): 0.377 µM
CC50 ([6]; RXF 393, read-out: LC50): 8.58 µM
GI50 ([6]; SF-268): 5.32 µM
CC50 ([6]; SF-268, read-out: LC50): > 100 µM
GI50 ([6]; SK-MEL-2): 4.42 µM
CC50 ([6]; SK-MEL-2, read-out: LC50): > 100 µM
GI50 ([6]; SK-MEL-5): 3.15 µM
CC50 ([6]; SK-MEL-5, read-out: LC50): 48.5 µM
GI50 ([6]; SK-MEL-28): 3.05 µM
CC50 ([6]; SK-MEL-28, read-out: LC50): > 100 µM
GI50 ([6]; SK-OV-3): 19 µM
CC50 ([6]; SK-OV-3, read-out: LC50): > 100 µM
CC50 ([6]; SN12C, read-out: LC50): > 100 µM
GI50 ([6]; SNB-19): 7.95 µM
CC50 ([6]; SNB-19, read-out: LC50): > 100 µM
GI50 ([6]; SNB-75): 1.84 µM
CC50 ([6]; SNB-75, read-out: LC50): > 100 µM
GI50 ([6]; SW-620): 8.4 µM
CC50 ([6]; SW-620, read-out: LC50): > 100 µM
GI50 ([6]; T47D): 10.3 µM
CC50 ([6]; T47D, read-out: LC50): > 100 µM
GI50 ([6]; TK-10): > 100 µM
CC50 ([6]; TK-10, read-out: LC50): > 100 µM
GI50 ([6]; U-251): 2.23 µM
CC50 ([6]; U-251, read-out: LC50): > 100 µM
GI50 ([6]; UACC-62): 2.43 µM
CC50 ([6]; UACC-62, read-out: LC50): > 100 µM
GI50 ([6]; UACC-257): 11.9 µM
CC50 ([6]; UACC-257, read-out: LC50): > 100 µM
GI50 ([6]; UO-31): 2.48 µM
CC50 ([6]; UO-31, read-out: LC50): > 100 µM
GI50 ([7]; Homo sapiens, SF-539): 0.454 µM
CC50 ([7]; Homo sapiens, SF-539, read-out: LC50): 91.7 µM
TGI ([7]; SF-539 (CNS Cancer), five dose): 3.23E−6
CC50 ([8]; Homo sapiens, RPMI-8226, read-out: LC50): > 100 µM
TGI ([8]; RPMI-8226 (Leukemia), five dose): 2.50E−6
GI50 ([9]; Homo sapiens, SR): 1.37 µM
CC50 ([9]; Homo sapiens, SR, read-out: LC50): > 100 µM
TGI ([9]; SR (Leukemia), five dose): 3.38E−5
